Measured values from patent publication US9145434B2 (Boehringer Ingelheim International GmbH, priority 2012, dated 2015).

Key:
Assay type in all cases: physicochemical
[1] = physical and chemical stability of the crystalline complex; conditions: under various environmental conditions and during the production of a medicament
[2] = mechanical stability of the crystals (grinding); conditions: allows grinding of the crystals
[3] = tendency to absorb moisture

**Q.** What does the source list for `N#Cc1ccc([C@@H]2O[C@H](CO)[C@@H](O)[C@H](O)[C@H]2O)cc1Cc1ccc(C2CC2)cc1.O=C(O)[C@@H]1CCCN1` [crystalline complex]?
**A.** physical and chemical stability [1]: high physical and chemical stability; mechanical stability [2]: high mechanical stability; tendency to absorb moisture [3]: does not show a high tendency to absorb moisture
